The text below walks through data of PMC5825103 (PLoS ONE, 2018).

Data set [1] has as its target T1, MR-LBD binding to co-activator peptides (Homo sapiens, UniProt P08235, C808S).
T1 construct: MR-LBD (amino acids 712–984) with the mutations C808S; 6-HN tag (thrombin cleavable) (N); made in house
T1 sequence (P08235 712-984 C808S): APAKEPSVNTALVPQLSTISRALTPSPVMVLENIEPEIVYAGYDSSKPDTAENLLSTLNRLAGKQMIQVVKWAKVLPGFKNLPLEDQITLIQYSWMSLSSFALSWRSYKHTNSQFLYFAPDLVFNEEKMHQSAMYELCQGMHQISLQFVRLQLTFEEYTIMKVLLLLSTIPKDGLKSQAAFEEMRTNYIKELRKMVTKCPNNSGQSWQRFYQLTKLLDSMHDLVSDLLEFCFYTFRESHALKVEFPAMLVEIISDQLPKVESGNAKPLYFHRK
Kind of data set: co-factor peptide recruitment by surface plasmon resonance. Conditions: 50 μM compound, relative to dexamethasone, seven peptides.
Protocol: Co-activator recruitment of MR was determined using surface plasmon resonance (SPR) biosensor (Biacore 3000, GE Healthcare) by probing the level of receptor binding to seven surface-immobilized co-activator peptides. All peptides carried an N-terminal biotin for surface-immobilisation, the following peptides and sequences were used:
Prior to the SPR measurements, excess dexamethasone was removed by gel filtration via a passage through a PD10 column (GE Healthcare) equilibrated in SPR running buffer (10 mM HEPES, 50 mM NaCl, 0,005% P20, pH 7.6). […] The surface was prepared through immobilization of the biotinylated peptides on a streptavidin chip (GE Healthcare) to levels of 1000±300 RU. The binding level at equilibrium was monitored for all samples including the reference sample that contained remaining traces of dexamethasone. All data was normalized to this reference sample in order to quantify the effects on peptide binding without bias by receptor instability. The surface was regenerated with 0.5% (w/v) SDS after each injection.

Data set [2] deals with uni-nephrectomised db/db mice. Kind of data set: organ protection in db/db uni-nephrectomised mice. In kind it is in vivo.
Protocol: Obese diabetic male db/db mice (BKS.Cg-Dock7^m +/+ Lepr^db/J homozygotes) and their littermate male db/m mice were obtained from the Jackson Laboratory (Bar Harbor, ME, USA). […] Mice were subjected to right uninephrectomy at 8 weeks of age to hasten the development of diabetic nephropathy as described previously [43]. Db/m mice that received a uninephrectomy at 8 weeks of age served as the operation control. […] All surgery was performed under isoflurane anesthesia, and all efforts were made to minimize suffering.
The blood glucose level and glycosylated hemoglobin (HbA1C) levels were monitored in tail blood samples using a blood glucose meter (Glucometer Elite XL, Bayer Healthcare, Elkhart, IN, USA) and the DC 2000+ HbA1C kit (Bayer Healthcare), respectively, before treatment and at the time of sacrifice. Twenty-four-hour urine was obtained from each mouse after placement in metabolic cages before treatment and at the time of sacrifice. Urine albumin was measured using the DC2000+ microalbumin reagent kit (Bayer Healthcare).
Mice were sacrificed under isoflurane anesthesia. Blood samples were obtained by cardiac puncture for the measurements of plasma compound, K^+ and creatinine concentrations. Plasma K^+ levels were determined on a Radiometer ABL 700 blood gas analyser (Radiometer, Copnchagen DK). Plasma creatinine levels were determined by LC-MS/MS. Urine creatinine was measured by the Jaffe method (Creatinine FS, REF117119910021, DiaSys). Kidneys were perfused through the heart with cold PBS and then excised. One piece of renal cortex was fixed in 10% neutralized formalin for histological staining.
Formalin-fixed renal cortex tissues were subsequently embedded in paraffin. Three-micrometer sections were cut from the tissue blocks and stained with periodic acid-Schiff (PAS). The PAS-positive glomerular matrix was quantitated in a blinded fashion by a computer-assisted method as previously described [43]. At least 20 glomeruli from each individual mouse were assessed. The PAS-positive material area in the mesangium was normalized by that of the total glomerular tuft where the percentage of mesangial matrix occupying each glomerulus area was rated. Glomerular sclerosis index was graded from 0 to 4+ as follows: 0 represents no lesion, 1+ represents sclerosis of <25% of the glomerulus, while 2 =, 3+ and 4+ represent sclerosis of 25% to 50%, >50% to 75%, and >75% of the glomerulus, respectively. A whole kidney average sclerosis index was obtained by averaging scores from all glomeruli on one section.

In the case of `C[C@]12CCC(=O)C=C1CC[C@@H]1[C@@H]2[C@@H](O)C[C@]2(C=O)[C@@H](C(=O)CO)CC[C@@H]12` [aldosterone], in data set [1], the co-activator peptide binding result is given as “strongest peptide binding”.

As to `CCOC(=O)[C@H](CCc1ccccc1)N[C@@H](C)C(=O)N1CCC[C@H]1C(=O)O` [enalapril], in data set [2] (after 4 weeks treatment), the “FE K+ end” value was found to be 15.6 ± 0.4%, the “FE Na+ end” value was found to be 0.18 ± 0.01%, the “UAE w22” value stood at 583 ± 97 µg 24h-1 and the “p-K+ end” value is recorded as 4.4 ± 0.1 mM. Also, in data set [2] (after 4 weeks treatment), the “u-K+ end” value is listed as 0.90 ± 0.07 mmol/24h, the “u-Na+ end” value worked out at 0.36 ± 0.03 mmol/24h and the “u-Na+/K+ end” value is reported as 0.40 ± 0.01. Moreover, the “UAE w18” value in data set [2] (before treatment, 18 weeks of age) is 958 ± 184 µg 24h-1. For the same compound, the “increased injury (glomerular ECM scoring) from week 18 to 22” value in data set [2] (four week treatment) is listed as “prevented”.
